Like-named read-outs stand apart in the source and are kept apart here.
What was measured:
Format in all cases: cell-based
RXF 1220L = test: 2D monolayer CellTiter-Blue viability, renal cancer RXF 1220L; settings: for Test/Control (%) at Drug Concentration: 72 h
Protocol: (§1) Mebendazole was tested in vitro across a panel of 12 tumor cell lines of ovarian and renal cancer by using a 2D monolayer assay. […] OVXF 899L and RXF 486L are P-gp expressing, multidrug resistant cell lines.
(§2) Anti-tumor activity is expressed as absolute and relative IC50/70 values, calculated by 4-parameter non-linear curve fit.

SXFS 1301 = test: 2D monolayer CellTiter-Blue viability, soft tissue sarcoma SXFS 1301; settings: 72 h
Protocol: (§3) Seventeen compounds, including mebendazole (Batch no. […] Efficacy of compounds was assessed using CellTiter-Blue® Cell Viability Assay. Anti-tumor activity is expressed as absolute and relative IC50 and IC70 values, calculated by non-linear regression analysis.

RXF 1781L = test: 2D monolayer CellTiter-Blue viability, renal cancer RXF 1781L; settings: for Test/Control (%) at Drug Concentration: 72 h; for IC50: RXF 1781L
Protocol: as §1, §2

NBXF KELLY = test: 2D monolayer CellTiter-Blue viability, neuroblastoma KELLY; settings: 72 h
Protocol: as §3

COC(=O)Nc1nc2ccc(C(=O)c3ccccc3)cc2[nH]1 [Mebendazole, methyl N-(6-benzoyl-1H-benzimidazol-2-yl)carbamate]
Test/Control (%) at Drug Concentration (RXF 1220L; RXF 1220, 1.0E+00 μM): 70% | Test/Control (%) at Drug Concentration (RXF 1220L; RXF 1220, 1.0E−01 μM): 99% | Test/Control (%) at Drug Concentration (RXF 1220L; RXF 1220, 1.0E−02 μM): 113% | Test/Control (%) at Drug Concentration (RXF 1220L; RXF 1220, 1.0E−03 μM): 98% | Test/Control (%) at Drug Concentration (RXF 1220L; RXF 1220, 1.0E−04 μM): 99% | Test/Control (%) at Drug Concentration (RXF 1220L; RXF 1220, 3.2E+00 μM): 61% | Test/Control (%) at Drug Concentration (RXF 1220L; RXF 1220, 3.2E−01 μM): 83% | Test/Control (%) at Drug Concentration (RXF 1220L; RXF 1220, 3.2E−02 μM): 99% | Test/Control (%) at Drug Concentration (RXF 1220L; RXF 1220, 3.2E−03 μM): 106% | Test/Control (%) at Drug Concentration (RXF 1220L; RXF 1220, 3.2E−04 μM): 102% | Abs. IC70 (RXF 1220L; RXF 1220, 72 h): >3200 nM | Rel. IC70 (RXF 1220L; RXF 1220, 72 h): 751 nM | Bot. (%) (RXF 1220L; RXF 1220, 72 h, curve fit): 59% | Top (%) (RXF 1220L; RXF 1220, 72 h, curve fit): 103% | IC50 (RXF 1220L; RXF 1220, 72 h, read-out: Abs. IC50): > 3200 nM | IC50 (RXF 1220L; RXF 1220, 72 h, read-out: Rel. IC50): 398 nM | Test/Control (%) at Drug Concentration (SXFS 1301; SXFS 1301, 1.0E+00 μM): 35% | Test/Control (%) at Drug Concentration (SXFS 1301; SXFS 1301, 1.0E+01 μM): 38% | Test/Control (%) at Drug Concentration (SXFS 1301; SXFS 1301, 1.0E+02 μM): 8% | Test/Control (%) at Drug Concentration (SXFS 1301; SXFS 1301, 1.0E−01 μM): 84% | Test/Control (%) at Drug Concentration (SXFS 1301; SXFS 1301, 1.0E−02 μM): 106% | Test/Control (%) at Drug Concentration (SXFS 1301; SXFS 1301, 3.2E+00 μM): 33% | Test/Control (%) at Drug Concentration (SXFS 1301; SXFS 1301, 3.2E+01 μM): 36% | Test/Control (%) at Drug Concentration (SXFS 1301; SXFS 1301, 3.2E−01 μM): 55% | Test/Control (%) at Drug Concentration (SXFS 1301; SXFS 1301, 3.2E−02 μM): 98% | Test/Control (%) at Drug Concentration (SXFS 1301; SXFS 1301, 3.2E−03 μM): 101% | Test/Control (%) at Drug Concentration (RXF 1781L; RXF 1781, 1.0E+00 μM): 25% | Test/Control (%) at Drug Concentration (RXF 1781L; RXF 1781, 1.0E−01 μM): 91% | Test/Control (%) at Drug Concentration (RXF 1781L; RXF 1781, 1.0E−02 μM): 92% | Test/Control (%) at Drug Concentration (RXF 1781L; RXF 1781, 1.0E−03 μM): 101% | Test/Control (%) at Drug Concentration (RXF 1781L; RXF 1781, 1.0E−04 μM): 98% | Test/Control (%) at Drug Concentration (RXF 1781L; RXF 1781, 3.2E+00 μM): 32% | Test/Control (%) at Drug Concentration (RXF 1781L; RXF 1781, 3.2E−01 μM): 61% | Test/Control (%) at Drug Concentration (RXF 1781L; RXF 1781, 3.2E−02 μM): 95% | Test/Control (%) at Drug Concentration (RXF 1781L; RXF 1781, 3.2E−03 μM): 95% | Test/Control (%) at Drug Concentration (RXF 1781L; RXF 1781, 3.2E−04 μM): 100% | Abs. IC70 (RXF 1781L; RXF 1781, 72 h): 978 nM | Rel. IC70 (RXF 1781L; RXF 1781, 72 h): 410 nM | Bot. (%) (RXF 1781L; RXF 1781, 72 h, curve fit): 28% | Top (%) (RXF 1781L; RXF 1781, 72 h, curve fit): 96% | IC50 (RXF 1781L; RXF 1781, 72 h, read-out: Abs. IC50): 395 nM | IC50 (RXF 1781L; RXF 1781, 72 h, read-out: Rel. IC50): 309 nM | Test/Control (%) at Drug Concentration (NBXF KELLY; 1.0E+00 μM): 6% | Test/Control (%) at Drug Concentration (NBXF KELLY; 1.0E+01 μM): −1% | Test/Control (%) at Drug Concentration (NBXF KELLY; 1.0E+02 μM): −1% | Test/Control (%) at Drug Concentration (NBXF KELLY; 1.0E−01 μM): 91% | Test/Control (%) at Drug Concentration (NBXF KELLY; 1.0E−02 μM): 99% | Test/Control (%) at Drug Concentration (NBXF KELLY; 3.2E+00 μM): −1% | Test/Control (%) at Drug Concentration (NBXF KELLY; 3.2E+01 μM): −1% | Test/Control (%) at Drug Concentration (NBXF KELLY; 3.2E−01 μM): 75% | Test/Control (%) at Drug Concentration (NBXF KELLY; 3.2E−02 μM): 99% | Test/Control (%) at Drug Concentration (NBXF KELLY; 3.2E−03 μM): 106%

From patent US20220125765A1, “PHARMACEUTICAL COMBINATIONS COMPRISING MEBENDAZOLE AND A STRONG OR MODERATE CYP1A2 INHIBITOR” (ZEPHAPHARM LTD, priority 2019, published 2022)
